We go through one substance from patent publication US20240216401A1, “COMBINATION THERAPY BY USING AKR1C3-ACTIVATED COMPOUND WITH IMMUNE CHECKPOINT INHIBITOR” (OBI Pharma, Inc., priority 2021, published 2024).

This assay relates to HepG2 tumor. Nature of the assay: Example 2: tumor volume, tumor weight and TGI in HepG2 tumor bearing humanized mice. It counts as in vivo, Mus musculus. The conditions noted are these: Example 2, D30. The method, then: 1. Species: Mus musculus • Strain: Advanced immunodeficiency mouse. • (NOD.CgPrkdc^scid Il2rg) • Source: Trineo Biotechnology Co., LTD.
Each group contains six mice. The human hepatocellular carcinoma cell line HepG2 were subcutaneously inoculated to the advanced immune-deficiency mice. Total of 42 mice were included in this study.
2.2. […] The subcutaneous injection volume was […].
3.1. […] The injection was performed using insulin syringe with the dosage of 0.3 mg/kg or 1 mg/kg and the injection volume was 5 mL/kg. […] The reference item was administered for G1. The procedure followed the standards of sample administration. The starting day of test item administration was denoted as the first experimental day (DO).
3.2. […] The injection was performed using insulin syringe with the dosage of 20 mg/kg and injection volume of 10 mL/kg. […] The procedure followed the standards of sample administration.
The measurement was performed from the next day of the inoculation. The tumor volumes were measured and recorded twice a week (Mon., Thur.). Tumor volume was calculated by ellipsoid equation according to the records ((major axis×minor axis×minor axis)×(π/6)).
Tumor volumes were used to calculate tumor growth inhibition (TGI) rates according to the following formula: TGI (%)=[1−(Ti−T0)/(Ci−C0)]×100, where Ti and Ci indicate the mean tumor volume in the treatment groups and vehicle group at the end of the experiment (Day 30). Whereas, T0 and C0 indicate the mean tumor volumes in the treatment group and vehicle group at the beginning of the experiment (Day 0).
Mice were sacrificed by CO2 euthanasia at the end of the study duration, and the connective tissue around tumor was resected. The tumor samples were then weighed and cut equally into three sections if the tumor weight over 400 mg. The tumor tissue was prepared for the isolation of tumor-infiltrating lymphocytes (TILs). The rest of one section was fixed in 10% formaldehyde and embedded in paraffin; the other was stored at a temperature below −70° C.

“anti-hPD-1: Anti-Human PD-1 antibody, Pembrolizumab, Merck & Co., Inc.”: the mean tumor volume (mean±SEM, anti-hPD-1 20 mg/kg IP alone (G4)) was found to be 983.84±266.44 mm^3. In addition, for the setting “vs vehicle (G1), OBI-3424 high-dose 1 mg/kg (G3), anti-hPD-1 20 mg/kg (G4), combinations G5-G7”, the “mean tumor volume compared with vehicle (in words)” value is “No statistically significant difference”.
